Test results from patent US7739055B2, “Methods and systems for generating and evaluating peptides” (priority 2005, dated 2010).
In brackets after ≈: the same amount, converted by molar mass. Like-named read-outs stand apart in the source and are kept apart here. Where a SMILES comes first, the peptide text is derived from it.

Legend:
[1] = first concentration that prohibits growth by OD at 24 hours, Table 1

| Compound | MIC E. coli (Escherichia coli; [1]) | MIC B. cereus (B. cereus; [1]) | MIC E. coli (Escherichia coli; 24 h) [µg/mL] | MIC B. cereus (B. cereus) | MIC B. cereus (B. cereus; 24 h) [µg/mL] |
| --- | --- | --- | --- | --- | --- |
| AKKAQKSGAQTIVKIFAKGM [Shuffled 39] | + (MIC greater than 256 ug/mL) | + (MIC greater than 256 ug/mL) | – | – | – |
| FKVVISKPGLSVRVGTALVT [Shuffled 65] | ++ (MIC greater than 128 ug/mL, not sufficiently soluble to test as 256 ug/mL) | ++ (MIC greater than 128 ug/mL, not sufficiently soluble to test as 256 ug/mL) | – | – | – |
| SVIGKIASKVVPSVYCAISK [Peptide 44] | + (MIC greater than 256 ug/mL) | + (MIC greater than 256 ug/mL) | – | – | – |
| CC(C)C[C@H](NC(=O)CNC(=O)[C@H](Cc1ccccc1)NC(=O)[C@H](CC(C)C)NC(=O)[C@H](C)NC(=O)CN)C(=O)N[C@@H](C)C(=O)N[C@@H](CO)C(=O)N[C@@H](CCCCN)C(=O)N[C@H](C(=O)N[C@@H](Cc1ccccc1)C(=O)N1CCC[C@H]1C(=O)N[C@@H](C)C(=O)N[C@H](C(=O)N[C@@H](Cc1ccccc1)C(=O)NCC(=O)N[C@@H](C)C(=O)N[C@@H](Cc1ccccc1)C(=O)N[C@@H](CCCCN)C(=O)N[C@@H](CCCCN)C(=O)O)C(C)C)C(C)C [Peptide 30] (H-GALFGLASKVFPAVFGAFKK-OH; N-terminus and C-terminus assumed) | – | + (MIC greater than 256 ug/mL) | 256 (≈ 125 µM) | – | – |
| CC[C@H](C)[C@H](NC(=O)[C@@H](NC(=O)[C@H](CS)NC(=O)[C@H](Cc1ccc(O)cc1)NC(=O)[C@@H](NC(=O)[C@H](C)NC(=O)[C@@H]1CCCN1C(=O)[C@H](Cc1ccccc1)NC(=O)[C@@H](NC(=O)[C@H](CCCCN)NC(=O)[C@H](CO)NC(=O)[C@H](C)NC(=O)[C@H](CC(C)C)NC(=O)[C@H](CCCCN)NC(=O)CNC(=O)[C@H](CC(C)C)NC(=O)[C@H](C)N)C(C)C)C(C)C)[C@@H](C)O)C(=O)N[C@@H](CO)C(=O)N[C@@H](CCCNC(=N)N)C(=O)N[C@@H](CCCCN)C(=O)O [Peptide 23] (H-ALGKLASKVFPAVYCTISRK-OH; N-terminus and C-terminus assumed) | – | + (MIC greater than 256 ug/mL) | 128 (≈ 59.5 µM) | – | – |
| SVVFGVASKVVPSVIGKVKT [Peptide 69] | + (MIC greater than 256 ug/mL) | + (MIC greater than 256 ug/mL) | – | – | – |
| AATGTGKTAAFALPVLERLI [Peptide 38] | + (MIC greater than 256 ug/mL) | + (MIC greater than 256 ug/mL) | – | – | – |
| VFSVKGGKPSVVIKVVVAST [Shuffled 69] | + (MIC greater than 256 ug/mL) | + (MIC greater than 256 ug/mL) | – | – | – |
| VKRAGKGVAVVPSPLFKIVV [Shuffled 45] | + (MIC greater than 256 ug/mL) | + (MIC greater than 256 ug/mL) | – | – | – |
| SVKPVGSSVVKGTALVKFFG [Shuffled 34] | + (MIC greater than 256 ug/mL) | + (MIC greater than 256 ug/mL) | – | – | – |
| PVVFSVASKVVPSLISALKR [Peptide 25] | + (MIC greater than 256 ug/mL) | – | – | + (key: +: MIC greater than 256 ug/mL; ++: MIC greater than 128 ug/mL, not sufficiently soluble to test as 256 ug/mL) | – |
| VIAFAKTKEAKAKLKGQAKG [Shuffled 77] | + (MIC greater than 256 ug/mL) | + (MIC greater than 256 ug/mL) | – | – | – |
| KVGKGSYPCSFVKVVAKVSV [Shuffled 85] | + (MIC greater than 256 ug/mL) | + (MIC greater than 256 ug/mL) | – | – | – |
| HTGRSGPATGHSGHSSTHGS [Peptide 86] | + (MIC greater than 256 ug/mL) | + (MIC greater than 256 ug/mL) | – | – | – |
| CC[C@H](C)[C@H](NC(=O)[C@H](CCSC)NC(=O)[C@H](CO)NC(=O)[C@@H](NC(=O)[C@H](CC(C)C)NC(=O)[C@H](CO)NC(=O)[C@@H]1CCCN1C(=O)[C@@H](NC(=O)[C@@H](NC(=O)[C@H](CCCCN)NC(=O)[C@H](CO)NC(=O)[C@H](C)NC(=O)[C@@H](NC(=O)[C@H](CCCNC(=N)N)NC(=O)CNC(=O)[C@@H](NC(=O)[C@H](Cc1ccccc1)NC(=O)[C@H](CO)NC(=O)[C@@H](N)CC(C)C)C(C)C)C(C)C)C(C)C)C(C)C)[C@@H](C)CC)C(=O)N[C@@H](CCCCN)C(=O)O [Peptide 55] (H-LSFVGRVASKVVPSLISMIK-OH; N-terminus and C-terminus assumed) | – | + (MIC greater than 256 ug/mL) | 256 (≈ 120 µM) | – | – |
| CC(C)[C@H](N)C(=O)N[C@H](C(=O)N[C@@H](Cc1ccccc1)C(=O)N[C@@H](CCCNC(=N)N)C(=O)N[C@H](C(=O)N[C@@H](C)C(=O)N[C@@H](CO)C(=O)N[C@@H](CCCCN)C(=O)N[C@H](C(=O)N[C@@H](Cc1ccccc1)C(=O)N1CCC[C@H]1C(=O)N[C@@H](C)C(=O)N[C@H](C(=O)N[C@@H](Cc1ccc(O)cc1)C(=O)N[C@@H](CS)C(=O)N[C@H](C(=O)N[C@H](C(=O)N[C@@H](CO)C(=O)N[C@@H](CCCCN)C(=O)N[C@@H](CCCCN)C(=O)O)C(C)C)[C@@H](C)O)C(C)C)C(C)C)C(C)C)C(C)C [Peptide 2] (H-VVFRVASKVFPAVYCTVSKK-OH; N-terminus and C-terminus assumed) | – | + (MIC greater than 256 ug/mL) | 128 (≈ 57.4 µM) | – | – |
| FMKVLAVFGSVVTSAPKASK [Shuffled 31] | + (MIC greater than 256 ug/mL) | + (MIC greater than 256 ug/mL) | – | – | – |

| Compound | MIC E. coli (Escherichia coli; [1]) | MIC B. cereus (B. cereus; [1]) | MIC E. coli (Escherichia coli; 24 h) [µg/mL] | MIC B. cereus (B. cereus) | MIC B. cereus (B. cereus; 24 h) [µg/mL] |
| --- | --- | --- | --- | --- | --- |
| LYSPTCVKAAVSRFIGKVSA [Shuffled 15] | + (MIC greater than 256 ug/mL) | + (MIC greater than 256 ug/mL) | – | – | – |
| GLKKDALQSIVKKAQLAAMG [Shuffled 9] | + (MIC greater than 256 ug/mL) | + (MIC greater than 256 ug/mL) | – | – | – |
| KGRGKQGGKVRAKAKTRSS [Parasin] | + (MIC greater than 256 ug/mL) | + (MIC greater than 256 ug/mL) | – | – | – |
| GVSSPIVAVKFKGAVASLIK [Shuffled 6] | + (MIC greater than 256 ug/mL) | + (MIC greater than 256 ug/mL) | – | – | – |
| CC[C@H](C)[C@H](NC(=O)CNC(=O)[C@H](CCC(=O)O)NC(=O)[C@H](CO)NC(=O)[C@@H](NC(=O)[C@H](CCCNC(=N)N)NC(=O)[C@H](CCCCN)NC(=O)[C@H](CCCCN)NC(=O)[C@H](C)NC(=O)[C@H](CO)NC(=O)[C@H](CC(N)=O)NC(=O)[C@H](CCC(=O)O)NC(=O)[C@H](CC(C)C)NC(=O)[C@H](CCCCN)NC(=O)[C@H](CCCCN)NC(=O)[C@H](C)NC(=O)[C@@H](NC(=O)[C@H](CCCCN)NC(=O)[C@H](CO)NC(=O)[C@H](CC(C)C)NC(=O)[C@H](Cc1c[nH]c2ccccc12)NC(=O)[C@@H](N)CO)[C@@H](C)O)[C@@H](C)CC)C(=O)N[C@@H](C)C(=O)N[C@H](C(=O)N[C@@H](C)C(=O)N[C@H](C(=O)N[C@@H](CCC(N)=O)C(=O)NCC(=O)NCC(=O)N1CCC[C@H]1C(=O)N[C@@H](CCCNC(=N)N)C(=O)O)[C@@H](C)CC)[C@@H](C)CC [Cecropin P1] (H-SWLSKTAKKLENSAKKRISEGIAIAIQGGPR-OH; N-terminus and C-terminus assumed) | 2 µg/mL (≈ 0.599 µM) | – | – | + (key: +: MIC greater than 256 ug/mL; ++: MIC greater than 128 ug/mL, not sufficiently soluble to test as 256 ug/mL) | – |
| SVKVAKSVIPSAVFAGGKVF [Shuffled 84] | + (MIC greater than 256 ug/mL) | + (MIC greater than 256 ug/mL) | – | – | – |
| KTVPVVLKASIKVSSAGFGF [Shuffled 82] | + (MIC greater than 256 ug/mL) | + (MIC greater than 256 ug/mL) | – | – | – |
| FVGGVASKVVPSVYCKVSKK [Peptide 85] | + (MIC greater than 256 ug/mL) | + (MIC greater than 256 ug/mL) | – | – | – |
| SAVGSVASKVVPSLISKVTK [Peptide 36] | + (MIC greater than 256 ug/mL) | + (MIC greater than 256 ug/mL) | – | – | – |
| PVIGKLASKVVPSVFSMIKR [Peptide 7] | + (MIC greater than 256 ug/mL) | + (MIC greater than 256 ug/mL) | – | – | – |
| SRVPLKSPVKIVGSKVMIFA [Shuffled 7] | + (MIC greater than 256 ug/mL) | + (MIC greater than 256 ug/mL) | – | – | – |
| KFDPLEGAPMARGIVLEKVG [Peptide 74] | + (MIC greater than 256 ug/mL) | + (MIC greater than 256 ug/mL) | – | – | – |
| GVVGKLASKVVPSVFGSFTK [Peptide 34] | + (MIC greater than 256 ug/mL) | + (MIC greater than 256 ug/mL) | – | – | – |
| VDKGSYLPRPTPPRPIYNRN [Pyrrhocoricin] | ++ (MIC greater than 128 ug/mL, not sufficiently soluble to test as 256 ug/mL) | – | – | ++ (key: +: MIC greater than 256 ug/mL; ++: MIC greater than 128 ug/mL, not sufficiently soluble to test as 256 ug/mL) | – |
| FLPFVGRIASKVVPSVIGKV [Peptide 75] | + (MIC greater than 256 ug/mL) | + (MIC greater than 256 ug/mL) | – | – | – |
| CC[C@H](C)[C@H](NC(=O)CN)C(=O)NCC(=O)N[C@@H](C)C(=O)N[C@H](C(=O)N[C@@H](CC(C)C)C(=O)N[C@@H](CCCCN)C(=O)N[C@H](C(=O)N[C@@H](CC(C)C)C(=O)N[C@H](C(=O)N[C@H](C(=O)NCC(=O)N[C@@H](CC(C)C)C(=O)N1CCC[C@H]1C(=O)N[C@@H](C)C(=O)N[C@@H](CC(C)C)C(=O)N[C@H](C(=O)N[C@@H](CO)C(=O)N[C@@H](Cc1c[nH]c2ccccc12)C(=O)N[C@H](C(=O)N[C@@H](CCCCN)C(=O)N[C@@H](CCCNC(=N)N)C(=O)N[C@@H](CCCCN)C(=O)N[C@@H](CCCNC(=N)N)C(=O)N[C@@H](CCC(N)=O)C(=O)N[C@@H](CCC(N)=O)C(N)=O)[C@@H](C)CC)[C@@H](C)CC)[C@@H](C)O)[C@@H](C)O)C(C)C)C(C)C [Melittin] | – | – | – | – | 8 (≈ 2.81 µM) |
